One series concerns patients. To be noted: 25 mg three times a week vs 25 mg daily, randomized phase III; cited from earlier work.
Series [1] in a line: In vivo pharmacokinetic studies in mice (plasma and liver, LC/MS-MS). To be noted: for AUC fold change vs. WT / AUC(0-t) / Cmax: exemestane 20 mg/kg oral; for AUC fold change vs. WT: 95% confidence interval; for AUC(0-t) / Cmax: female, FVB, mouse, plasma, po, 20 mg/kg, mean with SEM; for AUC(0-t): AUC0–6h.
Method: The analysis was conducted using a Vanquish UHPLC aligned with a Quantiva triple-stage quadrupole mass spectrometer (Thermo Fisher Scientific). An ACQUITY UPLC BEH C18 Column (130 Å, 1.7 μm, 2.1 mm × 50 mm, Waters Co.) protected by ACQUITY UPLC BEH Shield RP18 VanGuard Pre-column (130 Å, 1.7 μm, 2.1 mm × 5 mm, Waters Co.) was used for analyte separation. The injection volume of the sample was 10 μL. The temperature of the column was kept at 40°C, whereas the autosampler rack was kept at 4°C. The mobile phase consisted of solvent A, which was a solution of 0.1% acetic acid in LC/MS-grade water, and solvent B, which was a solution of 0.1% formic acid in acetonitrile. The total run time was 4.5 minutes. The following were the gradient conditions: 0.3 mL/minutes was the flow rate for the following intervals: 0 to 0.5 minutes, 30% B; 0.5 to 3.0 minutes, 30% to 95% B; 3.0 to 4.0 minutes, 95% B; and 4.001 to 4.5 minutes, 95% to 30% B. The vaporizer was adjusted to 360°C, and the ion transfer tube temperature was 340°C. The mass spectrometry assay was configured with a positive voltage of 3600 V delivered to the ESI capillary. The collision gas utilized was argon, with a pressure of 1.5 mTorr. The mass spectrometer was set up with the following optimized parameters: 1 arbitrary unit (Arb) for sweep gas, 5 Arb for auxiliary gas, and 25 Arb for sheath gas. […] The accuracy, expressed as a percent bias varied from −7.80% to 5.10%, whereas the inter-assay and intra-assay precisions ranged from 2.19% to 7.09% according to the results of assay validation tests. The lower limit of quantification was 0.4 ng/mL.
Letrozole was quantified using an LC/MS-MS method described previously ([14]). A Vanquish UHPLC and Quantiva triple-stage quadrupole mass spectrometer (Thermo Fisher Scientific) were used in the analysis. Analytes were separated chromatographically using a C18 AQUASIL guard cartridge (2.1 mm × 10 mm, 3 μm; Thermo Fisher Scientific) and an Accucore aQ column (50 mm × 2.1 mm, 2.6 μm). The temperature of the column was set at 40°C, whereas the autosampler was kept at 4°C. The mobile phase consisted of solvent A, which was a solution of 0.1% acetic acid in LC/MS-grade water, and solvent B, which was a solution of 0.1% formic acid in acetonitrile. A gradient elution method was employed for 5.0 minutes, with a flow rate of 0.4 mL/minutes. […] Injections were performed using 3 μL of the extracted samples. The mass spectrometer parameters were optimized and configured as follows: 25 Arb for sheath gas, 5 Arb for auxiliary gas, and 1 Arb for sweep gas. The temperature of the ion transfer tube and vaporizer was adjusted to 340°C and 360°C, respectively. Argon was used as the collision gas at a pressure of 1.5 mTorr. […] The lower limit of quantification was 5 ng/mL.
Female wild-type, Oatp1a/1b cluster-knockout mice [Oatp1a/1b^(−/−) mice] and Oatp1a/1b^(−/−) mice with transgenic hepatic expression of OATP1B1 [OATP1B1^(tg) mice] or OATP1B3 [OATP1B3^(tg) mice] were all on an FVB background (RRID: IMSR_T000141), and experimental groups were age- and weight-matched for each experiment. Female mice with a deficiency of all Cyp3a isoforms [Cyp3a^(−/−)] were similarly matched with FVB wild-type mice. All mice were bred in-house. Littermates of the same sex and genotype were housed in groups of maximally five animals in a temperature- and light-controlled environment (12-hour light/dark cycles) in cages lined with absorbent bedding. Mice were given free access to standard food and water.
For in vivo pharmacokinetic studies, mice were randomized into experimental groups of equal size.

This is an account of results in publication PMC11948302, “OATP1B-type Transport Function Is a Determinant of Aromatase Inhibitor–Associated Arthralgia Susceptibility” (Cancer Research Communications, 2025).

Broadly, the AUC(0-t) is exposure summed from dosing to a finite time, without extrapolation to infinity. Higher therefore signals more exposure. One may read the Cmax as the peak of the concentration-time curve. With `C=C1C[C@@H]2[C@H](CC[C@]3(C)C(=O)CC[C@@H]23)[C@@]2(C)C=CC(=O)C=C12` [Exemestane], in the series with patients, the “suppression of estrogen levels and reduction of breast cancer tissue proliferation, intermittent vs standard daily dosing” value is listed as “non-inferior”. Moreover, the “AUC fold change vs. WT” value in series [1] (OATP1B3^(tg) vs wild-type mice) is reported as 2.27 (1.49–3.44); in series [1] (Oatp1a/1b^(−/−) vs wild-type mice), 2.25 (1.60–3.18). Besides, the AUC(0-t) in series [1] (OATP1B3^(tg) female mice) was 294 ng·h/mL; in series [1] (Oatp1a/1b^(−/−) female mice), 292 ng·h/mL; in series [1] (wild-type female mice), 130 ng·h/mL. For the same compound, the Cmax in series [1] (OATP1B3^(tg) female mice) is 152 ng/mL; in series [1] (Oatp1a/1b^(−/−) female mice), 159 ng/mL; in series [1] (wild-type female mice), 94 ng/mL. The “liver levels, wild-type vs Oatp1a/1b^(−/−) mice” value in series [1] (single oral dose, letrozole 10 mg/kg or exemestane 20 mg/kg) was “higher levels”. Further, the “liver concentrations in OATP1B1^(tg) or OATP1B3^(tg) mice” value in series [1] (single oral dose, letrozole 10 mg/kg or exemestane 20 mg/kg, relative to Oatp1a/1b^(−/−) and wild-type) is “partially restored”.
